Drawing on PubChem BioAssay AID264 (DTP/NCI, 2004), this text covers T/C for 19 molecules.

Molecules are shown by their SMILES. Values joined by “and” are separate entries in the source; they are usually repeats but may differ in a detail not shown here. Equal entries are not always repeated. Records with an inconclusive call do not appear.

This assay deals with nude mice, LX-1 lung xenograft intrarenal, tumor weight T/C. The assay is described as follows: NCI In Vivo Anticancer Drug Screen. Data for tumor model Human Lung LX-1 Xenograft (intrarenal inoculation) in NU/NU Swiss (nude) mice. Particulars: endpoint: mean tumor weight change, higher = larger tumour. An outline of the steps:
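Compound-treated mice carrying transplanted tumors were compared with vehicle-treated controls. Tumor size was the measured end point, and the value is the treated-group measurement divided by the control-group measurement (T/C).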

Setting [1] is: dose: 6.25 mg/kg/injection, schedule: Q01DX010 (sc), vehicle: saline.
[2] abbreviates: dose: 75.0 mg/kg/injection, schedule: Q04DX003 (sc), vehicle: saline with Tween-80.
Where [3] appears, read: dose: 150.0 mg/kg/injection, schedule: Q04DX003 (sc), vehicle: saline with Tween-80.
[4] abbreviates: dose: 300.0 mg/kg/injection, schedule: Q04DX003 (sc), vehicle: saline with Tween-80.
Where [5] appears, read: dose: 600.0 mg/kg/injection, schedule: Q04DX003 (sc), vehicle: saline with Tween-80.
[6] abbreviates: dose: 100.0 mg/kg/injection, schedule: Q01DX010 (sc), vehicle: Klucel (hydroxypropylcellulose) (HPC).
Setting [7] is: dose: 200.0 mg/kg/injection, schedule: Q01DX010 (sc), vehicle: Klucel (hydroxypropylcellulose) (HPC).
Setting [8] is: dose: 600.0 mg/kg/injection, schedule: Q04DX003 (sc), vehicle: saline.
[9] abbreviates: dose: 200.0 mg/kg/injection, schedule: Q04DX003 (sc), vehicle: suspension in saline.
Setting [10] is: dose: 400.0 mg/kg/injection, schedule: Q04DX003 (sc), vehicle: saline with Tween-80.
Setting [11] is: dose: 100.0 mg/kg/injection, schedule: Q01DX010 (sc), vehicle: saline with Tween-80.

In the case of `CCOC(=O)NC1=C(N2CC2)C(=O)C(NC(=O)OCC)=C(N2CC2)C1=O`, the T/C reads like this: (dose: 0.78 mg/kg/injection, schedule: Q01DX010 (sc), vehicle: saline) 67 % of control; (dose: 1.56 mg/kg/injection, schedule: Q01DX010 (sc), vehicle: saline) 74 % of control; (dose: 1.56 mg/kg/injection, schedule: Q01DX010 (sc), vehicle: suspension in saline) 56 % of control; (dose: 3.12 mg/kg/injection, schedule: Q04DX003 (sc), vehicle: suspension in saline) 77 % of control; (dose: 3.13 mg/kg/injection, schedule: Q01DX010 (sc), vehicle: saline) 81 % of control; (dose: 3.13 mg/kg/injection, schedule: Q01DX010 (sc), vehicle: suspension in saline) 89 % of control. The T/C runs as follows: (dose: 3.13 mg/kg/injection, schedule: Q04DX003 (ip), vehicle: saline) 64 % of control; under setting [1], 35 % of control; (dose: 6.25 mg/kg/injection, schedule: Q04DX003 (ip), vehicle: saline) 96 % of control; (dose: 6.25 mg/kg/injection, schedule: Q04DX003 (sc), vehicle: saline) 75 % of control; (dose: 6.25 mg/kg/injection, schedule: Q04DX003 (sc), vehicle: suspension in saline) 65 % of control; (dose: 12.5 mg/kg/injection, schedule: Q04DX003 (ip), vehicle: saline) 34 % of control. In addition, the T/C reads like this: (dose: 12.5 mg/kg/injection, schedule: Q04DX003 (sc), vehicle: saline) 71 % of control; (dose: 25.0 mg/kg/injection, schedule: Q04DX003 (ip), vehicle: saline) 9 % of control.

Take `Oc1cc2ccccc2c(-c2c(O)c(O)cc3ccccc23)c1O`: the T/C was 85 % of control under setting [2], 108 % of control under setting [3], 42 % of control under setting [4] and 52 % of control under setting [5].

Regarding `CN(C)/N=N/c1nc[nH]c1C(N)=O`, the T/C (dose: 50.0 mg/kg/injection, schedule: Q01DX010 (sc), vehicle: Klucel (hydroxypropylcellulose) (HPC)) is 4 % of control; the T/C under setting [6] is -84 % of control; the T/C under setting [7] is -100 % of control.

Regarding `[Cl][Sn]([c]1ccccc1)[c]1ccccc1`, the T/C by setting is: (dose: 150.0 mg/kg/injection, schedule: Q04DX003 (sc), vehicle: saline) 92 % of control; under setting [8], 84 % of control.

As to `C=C1C(=O)OCC1C(=O)O` (stereo unspecified), the T/C is, setting by setting: (dose: 50.0 mg/kg/injection, schedule: Q04DX003 (sc), vehicle: suspension in saline) 123 % of control; (dose: 100.0 mg/kg/injection, schedule: Q04DX003 (sc), vehicle: suspension in saline) 95 % of control; under setting [9], 99 % of control.

Take `CCC1(O)CC2CN(CCc3c([nH]c4ccccc34)C(C(=O)OC)(c3cc4c(cc3OC)N(C)C3C(O)(C(N)=O)C(O)C5(CC)C=CCN6CCC43C65)C2)C1` (stereo unspecified) (tested in a mixture with another compound): the T/C (dose: 1.5 mg/kg/injection, schedule: Q04DX003 (sc), vehicle: water) is 28 % of control.

Consider `CC1(O)CC23CC(O)C4(O)C(CC(O)C4(C)C)C(C)(O)C2CCC1C3O` (stereo unspecified), for which the T/C reads like this: (dose: 0.25 mg/kg/injection, schedule: Q04DX003 (sc), vehicle: Klucel (hydroxypropylcellulose) (HPC)) 78 % of control; (dose: 0.5 mg/kg/injection, schedule: Q04DX003 (sc), vehicle: Klucel (hydroxypropylcellulose) (HPC)) 77 % of control; (dose: 1.0 mg/kg/injection, schedule: Q04DX003 (sc), vehicle: Klucel (hydroxypropylcellulose) (HPC)) 58 % of control.

As to `CC(=O)Oc1ccc[nH]c1=O`, the T/C under setting [10] is 87 % of control and the T/C (dose: 800.0 mg/kg/injection, schedule: Q04DX003 (sc), vehicle: saline with Tween-80) is 91 % of control.

`CC(C)=CCNc1ncnc2c1ncn2C1OC(CO)C(O)C1O` (stereo unspecified): the T/C was 93 % of control under setting [9]; 112 % of control (dose: 400.0 mg/kg/injection, schedule: Q04DX003 (sc), vehicle: suspension in saline); 88 % of control (dose: 800.0 mg/kg/injection, schedule: Q04DX003 (sc), vehicle: suspension in saline).

Take `CN1CCN(CCCN2c3ccccc3Sc3ccc(C(F)(F)F)cc32)CC1`: the T/C by setting is: under setting [1], 97 % of control; (dose: 12.5 mg/kg/injection, schedule: Q01DX010 (sc), vehicle: saline) 124 % of control; (dose: 100.0 mg/kg/injection, schedule: Q01DX010 (sc), vehicle: saline) 63 % of control and 66 % of control and 87 % of control; (dose: 400.0 mg/kg/injection, schedule: Q01DX010 (sc), vehicle: saline) 31 % of control.

As for `CC1=C(/C=C/C(C)=C/C=C/C(C)=C/CO)C(C)(C)CCC1`, the T/C is 105 % of control (dose: 50.0 mg/kg/injection, schedule: Q04DX003 (sc), vehicle: saline with Tween-80); 150 % of control (dose: 100.0 mg/kg/injection, schedule: Q04DX003 (sc), vehicle: saline with Tween-80); 111 % of control under setting [10].

Consider `COC(=O)Nc1nc2ccc(SC)cc2c(=O)[nH]1`, for which the T/C is 93 % of control (dose: 300.0 mg/kg/injection, schedule: Q04DX003 (sc), vehicle: Klucel (hydroxypropylcellulose) (HPC)); 93 % of control (dose: 600.0 mg/kg/injection, schedule: Q04DX003 (sc), vehicle: Klucel (hydroxypropylcellulose) (HPC)); 95 % of control (dose: 1200.0 mg/kg/injection, schedule: Q04DX003 (sc), vehicle: Klucel (hydroxypropylcellulose) (HPC)); 92 % of control (dose: 2400.0 mg/kg/injection, schedule: Q04DX003 (sc), vehicle: Klucel (hydroxypropylcellulose) (HPC)).

As for `C1CCC2C[N-]CCC2C1.C1CCC2C[N-]CCC2C1.C1CCC2C[N-]CCC2C1.C1CCC2C[N-]CCC2C1.[Cl][Rh][Cl]` (stereo unspecified), the T/C reads like this: (dose: 4.5 mg/kg/injection, schedule: Q04DX003 (sc), vehicle: saline with Tween-80) 64 % of control; (dose: 9.0 mg/kg/injection, schedule: Q04DX003 (sc), vehicle: saline with Tween-80) 89 % of control; (dose: 18.0 mg/kg/injection, schedule: Q04DX003 (sc), vehicle: saline with Tween-80) 63 % of control; (dose: 36.0 mg/kg/injection, schedule: Q04DX003 (sc), vehicle: saline with Tween-80) 60 % of control.

As to `O=C(Nc1ccc(Cl)c(Cl)c1)Nc1c(Oc2ccc(Cl)c(Cl)c2)ccc(Cl)c1S(=O)(=O)O`, the T/C under setting [6] was 43 % of control; the T/C under setting [7] was 50 % of control; the T/C (dose: 400.0 mg/kg/injection, schedule: Q01DX010 (sc), vehicle: Klucel (hydroxypropylcellulose) (HPC)) was 69 % of control; the T/C (dose: 800.0 mg/kg/injection, schedule: Q01DX010 (sc), vehicle: Klucel (hydroxypropylcellulose) (HPC)) was 60 % of control.

Take `CN=S(=O)(OCCCCCOS(=O)(=NC)c1ccc(C)cc1)c1ccc(C)cc1` (stereo unspecified): the T/C is, setting by setting: (dose: 37.5 mg/kg/injection, schedule: Q04DX003 (sc), vehicle: saline with Tween-80) 72 % of control; under setting [2], 83 % of control; under setting [3], 88 % of control; under setting [4], 30 % of control.

Consider `C=CCc1cn(C2CC(O)C(CO)O2)c(=O)[nH]c1=O` (stereo unspecified), for which the T/C reads like this: (dose: 300.0 mg/kg/injection, schedule: Q04DX003 (sc), vehicle: saline) 91 % of control; under setting [8], 82 % of control; (dose: 1200.0 mg/kg/injection, schedule: Q04DX003 (sc), vehicle: saline) 74 % of control; (dose: 2400.0 mg/kg/injection, schedule: Q04DX003 (sc), vehicle: saline) 111 % of control.

Regarding `C[C@@H](CN1CC(=O)NC(=O)C1)N1CC(=O)NC(=O)C1`, the T/C was 91 % of control (dose: 50.0 mg/kg/injection, schedule: Q01DX010 (sc), vehicle: saline with Tween-80) and 34 % of control under setting [11].

For `CCOC(=O)c1ccc(NC(=O)Nc2nccs2)cc1`, the T/C is 99 % of control under setting [11]; 107 % of control (dose: 200.0 mg/kg/injection, schedule: Q01DX010 (sc), vehicle: saline with Tween-80); 92 % of control (dose: 400.0 mg/kg/injection, schedule: Q01DX010 (sc), vehicle: saline with Tween-80); 66 % of control (dose: 800.0 mg/kg/injection, schedule: Q01DX010 (sc), vehicle: saline with Tween-80).

As to `C[n+]1c(/C=N/NC(N)=S)ccc2ccccc21`, the T/C reads like this: under setting [4], 93 % of control; under setting [5], 101 % of control; (dose: 1200.0 mg/kg/injection, schedule: Q04DX003 (sc), vehicle: saline with Tween-80) 102 % of control.
